Reference: US6977246B2, “Certain dinucleotides and their use as modulators of mucociliary clearance and ciliary beat frequency” (Inspire Pharmaceuticals, Inc., priority 1997, dated 2005)
Structures can show the parent of a compound that is named as a salt. Where two headings read alike, the source gives them in different places.

How the values were obtained:
P2Y2 receptor = P2Y2 receptor (Homo sapiens, UniProt P41231); assay: inositol phosphate assay, P2Y2 receptor activity
Source text: (§1) The pharmaceutical utility of compounds of this invention are indicated by the inositol phosphate assay for P2Y2 and other P2Y receptor activity. […] 116, 1619-27 (1995), relies on the measurement of inositol phosphate formation as a measurement of activity of compounds activating receptors linked via G-proteins to phospholipase C.

P2Y1 receptor [1] = molecular target: T1, P2Y1 receptor (Homo sapiens, UniProt P47900); assay: inositol phosphate assay, P2Y1 receptor activity; conditions: inositol phosphate formation
Source text: as §1

P2Y4 receptor = P2Y4 receptor (Homo sapiens, UniProt P51582); assay: inositol phosphate assay, P2Y4 receptor activity
Source text: as §1

P2Y6 receptor = P2Y6 receptor (Homo sapiens, UniProt Q15077); assay: inositol phosphate assay, P2Y6 receptor activity
Source text: as §1

P2Y1 receptor [2] = molecular target: T1, P2Y1 receptor; assay: cell-based
Source text: as §1

[3] = normal volunteers; cited from earlier work
[4] = read-out: EC50 P2Y2, inositol phosphate formation
[5] = read-out: EC50 P2Y4, inositol phosphate formation
[6] = read-out: EC50 P2Y6, inositol phosphate formation

T1 sequence (P47900 whole entry): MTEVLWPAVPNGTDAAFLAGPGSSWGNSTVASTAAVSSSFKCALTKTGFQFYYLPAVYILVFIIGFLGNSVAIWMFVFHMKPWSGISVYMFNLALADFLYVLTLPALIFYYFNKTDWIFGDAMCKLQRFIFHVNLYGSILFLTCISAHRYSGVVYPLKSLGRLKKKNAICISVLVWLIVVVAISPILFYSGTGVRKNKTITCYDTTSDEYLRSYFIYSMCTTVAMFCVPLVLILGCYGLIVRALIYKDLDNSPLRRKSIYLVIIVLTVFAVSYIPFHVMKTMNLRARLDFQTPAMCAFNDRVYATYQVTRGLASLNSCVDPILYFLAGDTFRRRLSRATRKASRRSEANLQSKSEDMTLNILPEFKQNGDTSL
Sequence of P2Y2 receptor (P41231 whole entry): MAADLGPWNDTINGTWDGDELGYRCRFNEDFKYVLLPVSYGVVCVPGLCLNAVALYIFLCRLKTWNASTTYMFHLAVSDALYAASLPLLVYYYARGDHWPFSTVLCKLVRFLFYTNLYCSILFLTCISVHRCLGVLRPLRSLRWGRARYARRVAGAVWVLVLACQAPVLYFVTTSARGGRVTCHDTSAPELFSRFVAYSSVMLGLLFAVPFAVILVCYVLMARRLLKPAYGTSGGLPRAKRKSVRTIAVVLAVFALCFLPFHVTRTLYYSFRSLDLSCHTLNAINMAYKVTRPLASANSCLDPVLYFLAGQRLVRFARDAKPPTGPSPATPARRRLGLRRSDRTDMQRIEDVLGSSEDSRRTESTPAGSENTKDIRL
Sequence of P2Y4 receptor (P51582 whole entry): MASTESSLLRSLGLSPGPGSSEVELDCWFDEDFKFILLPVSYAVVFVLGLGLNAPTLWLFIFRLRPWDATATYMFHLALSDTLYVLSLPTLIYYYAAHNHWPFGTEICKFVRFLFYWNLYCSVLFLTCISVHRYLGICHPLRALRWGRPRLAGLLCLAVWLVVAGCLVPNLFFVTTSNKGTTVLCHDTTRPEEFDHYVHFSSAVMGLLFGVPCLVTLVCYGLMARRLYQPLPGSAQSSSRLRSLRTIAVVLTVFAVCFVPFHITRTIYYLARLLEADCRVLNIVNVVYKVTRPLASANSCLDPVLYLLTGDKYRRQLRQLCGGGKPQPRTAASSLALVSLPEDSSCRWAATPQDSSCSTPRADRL
Sequence of P2Y6 receptor (Q15077 whole entry): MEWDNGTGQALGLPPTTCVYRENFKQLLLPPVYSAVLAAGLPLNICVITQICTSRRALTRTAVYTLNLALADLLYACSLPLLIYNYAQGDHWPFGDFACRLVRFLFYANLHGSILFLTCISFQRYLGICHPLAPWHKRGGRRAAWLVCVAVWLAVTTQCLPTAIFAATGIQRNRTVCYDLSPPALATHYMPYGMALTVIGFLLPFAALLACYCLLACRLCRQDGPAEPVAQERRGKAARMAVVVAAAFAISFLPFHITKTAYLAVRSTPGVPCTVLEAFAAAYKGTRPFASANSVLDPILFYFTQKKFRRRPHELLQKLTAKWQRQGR

Compound	EC50 (P2Y2 receptor) [nM]	EC50 (P2Y4 receptor) [nM]	EC50 (P2Y6 receptor) [nM]	other results
2′(3′)-Benzoyl-P^1,P^4-di(uridine 5′-)tetraphosphate [Example 15]	–	–	–	EC50 (P2Y2 receptor; [4]): 640 nM; EC50 P2Y1 (P2Y1 receptor [1]): IA (Response < 2-fold basal); EC50 (P2Y4 receptor; [5]): 3720 nM; EC50 (P2Y6 receptor; [6]): 9710 nM
O=c1ccn([C@@H]2O[C@H](COP(=O)(O)OP(=O)(O)CP(=O)(O)OP(=O)(O)OC[C@H]3O[C@@H](n4ccc(=O)[nH]c4=O)[C@H](O)[C@@H]3O)[C@@H](O)[C@H]2O)c(=O)[nH]1 [Example 1, P^1,P^4-Di(uridine 5′-)P^2,P^3-methylenetetraphosphate]	> 100000	11100	–	Percentage response of same study positive control, P2Y4 (P2Y4 receptor; inositol phosphate formation): 60%; EC50 P2Y6 (P2Y6 receptor; inositol phosphate formation): IA (Response < 2-fold basal)
O=c1ccn([C@@H]2O[C@H](COP(=O)(O)OP(=O)(O)C(F)(F)P(=O)(O)OP(=O)(O)OC[C@H]3O[C@@H](n4ccc(=O)[nH]c4=O)[C@H](O)[C@@H]3O)[C@@H](O)[C@H]2O)c(=O)[nH]1 [Example 2, P^1,P^4-Di(uridine 5′-P^2,P^3-difluoromethylenetetraphosphate)]	5710	1000	> 100000	Percentage response of same study positive control, P2Y4 (P2Y4 receptor; inositol phosphate formation): 80%
O=c1ccn([C@@H]2O[C@H](COP(=O)(O)OP(=O)(O)NP(=O)(O)OP(=O)(O)OC[C@H]3O[C@@H](n4ccc(=O)[nH]c4=O)[C@H](O)[C@@H]3O)[C@@H](O)[C@H]2O)c(=O)[nH]1 [Example 3, P^1,P^4-Di(uridine 5′-P^2,P^3-imidotetraphosphate)]	630	1190	2560	EC50 (P2Y1 receptor [2]): 3670 nM
O=c1[nH]c(=S)ccn1[C@@H]1O[C@H](COP(=O)(O)OP(=O)(O)OP(=O)(O)OP(=O)(O)OC[C@H]2O[C@@H](n3ccc(=S)[nH]c3=O)[C@H](O)[C@@H]2O)[C@@H](O)[C@H]1O [Example 4, P^1,P^4-Di(4-thiouridine 5′-tetraphosphate)]	20	–	50	Percentage response of same study positive control, P2Y6 (P2Y6 receptor; inositol phosphate formation): 20%
O=c1ccn([C@@H]2O[C@H](COP(=O)(O)OP(=O)(O)OP(=O)(O)OP(=O)(O)OP(=O)(O)OC[C@H]3O[C@@H](n4ccc(=O)[nH]c4=O)[C@H](O)[C@@H]3O)[C@@H](O)[C@H]2O)c(=O)[nH]1 [Example 5, P^1,P^5-Di(uridine 5′-pentaphosphate)]	3800	2870	92600	EC50 (P2Y1 receptor [2]): 31200 nM; Percentage response of same study positive control, P2Y2 (P2Y2 receptor; inositol phosphate formation): 80%; Percentage response of same study positive control, P2Y1 (P2Y1 receptor [1]): 55%
O=c1n([C@@H]2O[C@H](COP(=O)(O)OP(=O)(O)OP(=O)(O)OP(=O)(O)OC[C@H]3O[C@@H](n4ccc5nccn5c4=O)[C@H](O)[C@@H]3O)[C@@H](O)[C@H]2O)ccc2nccn12 [Example 6, P^1,P^4-Di(3,N^4-ethenocytidine 5′-)tetraphosphate]	460	19800	–	EC50 (P2Y1 receptor [2]): > 100000 nM; Percentage response of same study positive control, P2Y4 (P2Y4 receptor; inositol phosphate formation): 75%; EC50 P2Y6 (P2Y6 receptor; inositol phosphate formation): IA (Response < 2-fold basal)
O=c1n([C@@H]2O[C@H](COP(=O)(O)OP(=O)(O)OP(=O)(O)OP(=O)(O)OC[C@H]3O[C@@H](n4ccc5nc(-c6cccc([N+](=O)[O-])c6)cn5c4=O)[C@H](O)[C@@H]3O)[C@@H](O)[C@H]2O)ccc2nc(-c3cccc([N+](=O)[O-])c3)cn12 [Example 6a, P^1,P^4-Di(imidazo[1,2-c]pyrimidin-5(6H)-one-2-(3-nitro)-phenyl-6-β-D-ribofuranoside 5′-)tetraphosphate, tetraammonium salt]	300	60	870	–
Cc1cn([C@H]2C[C@H](O)[C@@H](COP(=O)(O)OP(=O)(O)OP(=O)(O)OP(=O)(O)OC[C@H]3O[C@@H](n4ccc(=O)[nH]c4=O)[C@H](O)[C@@H]3O)O2)c(=O)[nH]c1=O [Example 7, P^1-(Thymidine-5′-)P^4-(uridine-5′-)tetraphosphate]	110	200	880	–
O=c1ccn([C@@H]2O[C@H](COP(=O)(O)OP(=O)(O)OP(=O)(O)OP(=O)(O)OC[C@H]3O[C@@H](n4cnc5c(=O)[nH]cnc54)[C@H](O)[C@@H]3O)[C@@H](O)[C@H]2O)c(=O)[nH]1 [Example 8, P^1-(Inosine 5′-)P^4-(uridine 5′-)tetraphosphate]	110	150	800	–
O=c1ccn([C@@H]2O[C@H](COP(=O)(O)OP(=O)(O)OP(=O)(O)OP(=O)(O)OC[C@H]3O[C@@H](n4ccc(=S)[nH]c4=O)[C@H](O)[C@@H]3O)[C@@H](O)[C@H]2O)c(=O)[nH]1 [Example 9, P^1-(4-Thiouridine 5′-)P^4-(uridine 5′-)tetraphosphate]	370	4160	1790	EC50 (P2Y1 receptor [2]): > 100000 nM
Nc1ccn([C@@H]2O[C@H](COP(=O)(O)OP(=O)(O)OP(=O)(O)OP(=O)(O)OC[C@H]3O[C@@H](n4ccc(=O)[nH]c4=O)[C@H](O)[C@@H]3O)[C@@H](O)[C@@H]2O)c(=O)n1 [Example 10, P^1-(Cytosine β-D-arabinofuranoside 5′-)P^4-(uridine 5′-)tetraphosphate]	190	320	1300	Percentage response of same study positive control, P2Y4 (P2Y4 receptor; inositol phosphate formation): 65%
O=c1ccn([C@@H]2O[C@H](COP(=O)(O)OP(=O)(O)OP(=O)(O)OP(=O)(O)OC[C@H]3O[C@@H](n4cnc5c(=O)[nH]c(=O)[nH]c54)[C@H](O)[C@@H]3O)[C@@H](O)[C@H]2O)c(=O)[nH]1 [Example 11, P^1-(Uridine 5′-)-P^4-(xanthosine 5′-)tetraphosphate]	130	380	3390	Percentage response of same study positive control, P2Y4 (P2Y4 receptor; inositol phosphate formation): 75%
O=c1ccn([C@@H]2O[C@H](COP(=O)(O)OP(=O)(O)OP(=O)(O)OP(=O)(O)OC[C@H]3O[C@@H](n4ccc(=O)[nH]c4=O)C[C@@H]3O)[C@@H](O)[C@H]2O)c(=O)[nH]1 [Example 12, P^1-(2′-deoxyuridine 5′-)-P^4-(uridine 5′-)tetraphosphate]	100	390	920	–
Cc1cn([C@H]2C[C@H](N=[N+]=[N-])[C@@H](COP(=O)(O)OP(=O)(O)OP(=O)(O)OP(=O)(O)OC[C@H]3O[C@@H](n4ccc(=O)[nH]c4=O)[C@H](O)[C@@H]3O)O2)c(=O)[nH]c1=O [Example 13, P^1-(3′-Azido-3′-deoxythymidine 5′-)-P^4-(uridine 5′-)tetraphosphate]	200	130	540	–
O=c1ccn([C@@H]2O[C@H](COP(=O)(O)OP(=O)(O)OP(=O)(O)OP(=O)(O)OP(=O)(O)OP(=O)(O)OC[C@H]3O[C@@H](n4ccc(=O)[nH]c4=O)[C@H](O)[C@@H]3O)[C@@H](O)[C@H]2O)c(=O)[nH]1 [Example 14, P^1,P^6-Di(uridine-5′-)hexaphosphate]	–	–	–	EC50 (P2Y2 receptor; [4]): 10700 nM; EC50 (P2Y4 receptor; [5]): 14700 nM; EC50 (P2Y6 receptor; [6]): 3500 nM
O=c1ccn([C@@H]2O[C@H](COP(=O)(O)OP(=O)(O)OP(=O)(O)O)[C@@H](O)[C@H]2O)c(=O)[nH]1 [UTP, uridine 5′-triphosphate]	–	–	–	improvement in lung mucociliary clearance [3]: 2.5 fold; side-effects [3]: without any significant side-effects
P^1,P^4-Di(2′(3′)-benzoyl uridine 5′-)tetraphosphate [Example 16]	–	–	–	EC50 (P2Y2 receptor; [4]): 790 nM; EC50 P2Y1 (P2Y1 receptor [1]): IA (Response < 2-fold basal); EC50 (P2Y4 receptor; [5]): 730 nM; EC50 (P2Y6 receptor; [6]): 5330 nM
